In US20230174538A1, “Tricyclic heterocycles” (Merck Patent GmbH, priority 2020, published 2023) one finds IC50 data, which are given here for 31 compounds.

Each structure is given as a SMILES string.

For the test, the system named is YAP-TEAD interaction. As to the kind of experiment: SK-HEP-1 reporter assay (8xTEAD responsive elements driving NanoLuc luciferase). The test is classed as cell-based. The following applies: Homo sapiens, SK-HEP1, SK-HEP-1 reporter assay. As for the experimental part:
To identify inhibitors of YAP-TEAD interaction, 8×TEAD responsive elements driving the NanoLuc® luciferase gene were stably integrated into SK-HEP-1 cells (ECACC #: 91091816).
For the assay, cells were treated in duplicates with the test compounds in a 10-point dose, with the top concentration starting at 30 μM (final concentration in assay). After a 24 hour incubation at 37° C., 95% rH, and 5% CO2, a luciferase substrate/lysis reagent mix (NanoGlo™, Promega) was added to the cells, allowing the quantification of cellular luciferase activity.
Cell Media: The cells were cultured in the following media: MEM, +10% FBS, +1× GlutaMAX, +1 mM Sodium-Pyruvate, +100 μM Non-essential amino acids, +0.1 mg/ml Hygromycin. The media used for the assay was: MEM (w/o Phenol Red), +10% FBS, +1× GlutaMAX, +1 mM Sodium-Pyruvate, +100 μM Non-essential amino acids, +0.5% Pen/Strep
Reagents: The reagents used are listed below:
Cell culture: The cells were examined using an inverted microscope to check for health and cell density. To dissociate adherent cells, the monolayer of cells was washed once with pre-warmed PBS. After removing the PBS, 3 ml pre-warmed Accutase® was added to a F75 flask, dispersed evenly and the flask was allowed to sit in incubator for ˜4-5 minutes.
When a single cell suspension was obtained, 7 ml of prewarmed growth media was added and resuspended with the cells. The cell suspension was transferred to a sterile 15 ml conical centrifuge tube, and spun for 5 min at 300×g, RT. The supernatant was discarded and the pellet was resuspended in 10 ml of pre-warmed growth media.
The total cell count was determined, and 20 μl of the desired cell number was added to each well of a 384 well plate using a Multidrop Combi. The plates were then incubated for 24 hours at 37° C., 95% rH, and 5% CO2.
Compound treatment: 24 hours after seeding, the cells were treated with compounds.
A 1:333 dilution of compounds, diluted in DMSO, was made to get a final concentration of 0.3% DMSO per well. To transfer the compounds to the assay plate, 120 nl was shot from Labcyte low dead volume plates to the cell plates containing 20 μl media/well with the ECHO 555 liquid handling system.
After treatment, the cells were fed with 20 μl fresh pre-warmed assay media using a Multidrop combi.
The assay plates were then incubated for another 24 h at 37° C., 95% rH, and 5% CO2.
Luciferase readout: 24 h after treatment, the plates were taken out of the incubator and were allowed to equilibrate to RT. 30 μl of NanoGlo® reagent was added to the plates in the dark. Plates were shaken for 20 min on a Teleshake (˜1500 rpm) in the dark. The luminescence was then measured using an EnVision microplate reader. The IC50 values were generated using Genedata Screener®.
Background: In a reporter assay the amount or activity of a reporter protein is the signal.
`Cn1cc2c3cc(C(=O)NCc4cc5ncccc5[nH]4)ccc3n(-c3ccc(C(F)(F)F)cc3)c2n1` [Example B6, 2-methyl-N-({1H-pyrrolo[3,2-b]pyridin-2-yl}methyl)-8-[4-(trifluoromethyl)phenyl]-2H,8H-pyrazolo[3,4-b]indole-5-carboxamide] displayed an IC50 of 100 to 10000 nM.
The same measure for `Cc1c[nH]c(C2(NC(=O)c3ccc4c(c3)c3cn(C)nc3n4-c3ccc(C(F)(F)F)cc3)CCC2)n1` [Example B60, 2-methyl-N-[1-(4-methyl-1H-imidazol-2-yl)cyclobutyl]-8-[4-(trifluoromethyl)phenyl]-2H,8H-pyrazolo[3,4-b]indole-5-carboxamide]: 100 to 10000 nM; for `Cn1cc2c3cc(C(=O)O)ccc3n(-c3cccc(F)c3)c2n1` [Example 7, 8-(3-fluorophenyl)-2-methyl-2H,8H-pyrazolo[3,4-b]indole-5-carboxylic acid]: 10 to 100 nM; for `O=C(O)c1ccc2c(c1)c1cn(Cc3ccccc3)cc1n2S(=O)(=O)c1ccccc1` [Example 1, 4-(benzenesulfonyl)-2-benzyl-2H,4H-pyrrolo[3,4-b]indole-7-carboxylic acid]: 100 to 10000 nM.
Then `Cn1cc2c3cc(C(=O)N[C@@H]4CCO[C@H]4c4cc[nH]n4)ccc3n(-c3ccc(C(F)(F)F)cc3)c2n1` [B122^], with 10 to 100 nM.
The same measure for `Cn1cc2c(n1)c1cc(S(C)(=O)=O)ccc1n2-c1ccc(C(F)(F)F)cc1` [Example 33, 7-methanesulfonyl-2-methyl-4-[4-(trifluoromethyl)phenyl]-2H,4H-pyrazolo[4,3-b]indole]: 100 to 10000 nM.
For the compound `Cc1c[nH]c(C(NC(=O)c2ccc3c(c2)c2cn(C)nc2n3-c2ccc(C(F)(F)F)cc2)C2CC2)n1` (stereo not shown) [B145^], the IC50 was above 10000 nM.
`CC1COC(CO)CN1C(=O)c1ccc2c(c1)c1cn(C)nc1n2-c1ccc(C(F)(F)F)cc1` (stereo not shown) [Example B72, (5-methyl-4-{2-methyl-8-[4-(trifluoromethyl)phenyl]-2H,8H-pyrazolo[3,4-b]indole-5-carbonyl}morpholin-2-yl)methanol] had an IC50 of 100 to 10000 nM.
The same measure for `Cn1cc2c3cc(C(=O)N(CCO)CC4CC=CCC4)ccc3n(-c3ccc(C(F)(F)F)cc3)c2n1` (stereo not shown) [Example B12, N-[(cyclohex-3-en-1-yl)methyl]-N-(2-hydroxyethyl)-2-methyl-8-[4-(trifluoromethyl)phenyl]-2H,8H-pyrazolo[3,4-b]indole-5-carboxamide]: 100 to 10000 nM; for `Cn1cc2c3cc(C(=O)N4CCC[C@@H]4CCCO)ccc3n(-c3ccc(C(F)(F)F)cc3)c2n1` (single isomer, unassigned) [Example B18]: 100 to 10000 nM; for `Cn1cc2c3cc(C(=O)NCc4cc(C5CCC5)n[nH]4)ccc3n(-c3ccc(C(F)(F)F)cc3)c2n1` [Example B17, N-[(3-cyclobutyl-1H-pyrazol-5-yl)methyl]-2-methyl-8-[4-(trifluoro-methyl)phenyl]-2H,8H-pyrazolo[3,4-b]indole-5-carboxamide]: 100 to 10000 nM.
Then `Cn1cc2c3cc(C(=O)NCCc4ocnc4CO)ccc3n(-c3ccc(C(F)(F)F)cc3)c2n1` [Example B67, N-{2-[4-(hydroxymethyl)-1,3-oxazol-5-yl]ethyl}-2-methyl-8-[4-(trifluoromethyl)phenyl]-2H,8H-pyrazolo[3,4-b]indole-5-carboxamide], with 10 to 100 nM.
Then `Cn1cc2c3cc(C(=O)NC4(Cc5nc[nH]n5)CC4)ccc3n(-c3ccc(C(F)(F)F)cc3)c2n1` [Example B80, 2-methyl-N-{1-[(1H-1,2,4-triazol-3-yl)methyl]cyclopropyl}-8-[4-(trifluoromethyl)phenyl]-2H,8H-pyrazolo[3,4-b]indole-5-carboxamide], with 10 to 100 nM.
In the case of `Cc1noc(CC2(NC(=O)c3ccc4c(c3)c3cn(C)nc3n4-c3ccc(C(F)(F)F)cc3)CC2)n1` [Example B77, 2-methyl-N-{1-[(3-methyl-1,2,4-oxadiazol-5-yl)methyl]cyclopropyl}-8-[4-(trifluoromethyl)phenyl]-2H,8H-pyrazolo[3,4-b]indole-5-carboxamide], the IC50 is above 10000 nM.
`Cn1cc2c3cc(C(=O)NC4(CCF)CCOCC4)ccc3n(-c3ccc(C(F)(F)F)cc3)c2n1` [B112^] displayed an IC50 of 100 to 10000 nM.
The same measure for `CCn1ncc(CNC(=O)c2ccc3c(c2)c2cn(C)nc2n3-c2ccc(C(F)(F)F)cc2)c1F` [B119^]: above 10000 nM; for `Cn1cc2c3cc(C(=O)NC(CCO)c4cncs4)ccc3n(-c3ccc(C(F)(F)F)cc3)c2n1` (stereo not shown) [Example B9, N-[3-hydroxy-1-(1,3-thiazol-5-yl)propyl]-2-methyl-8-[4-(trifluoromethyl)phenyl]-2H,8H-pyrazolo[3,4-b]indole-5-carboxamide]: 10 to 100 nM.
Compound `Cc1ncncc1[C@@H](C)NC(=O)c1ccc2c(c1)c1cn(C)nc1n2-c1ccc(C(F)(F)F)cc1` [B118^] displayed an IC50 of 100 to 10000 nM.
Then `Cn1cc2c3cc(C(=O)NC4(c5cncn5C)CC4)ccc3n(-c3ccc(C(F)(F)F)cc3)c2n1` [Example B70, 2-methyl-N-[1-(1-methyl-1H-imidazol-5-yl)cyclopropyl]-8-[4-(trifluoromethyl)phenyl]-2H,8H-pyrazolo[3,4-b]indole-5-carboxamide], with 100 to 10000 nM; and `CCn1cc(CCNC(=O)c2ccc3c(c2)c2cn(C)nc2n3-c2ccc(C(F)(F)F)cc2)nn1` [B105^], with 100 to 10000 nM.
`Cc1nccc(C2(NC(=O)c3ccc4c(c3)c3cn(C)nc3n4-c3ccc(C(F)(F)F)cc3)CC2)n1` [Example B69, 2-methyl-N-[1-(2-methylpyrimidin-4-yl)cyclopropyl]-8-[4-(trifluoromethyl)phenyl]-2H,8H-pyrazolo[3,4-b]indole-5-carboxamide] came in with an IC50 above 10000 nM.
The same measure for `Cc1cnc2n1CCC2NC(=O)c1ccc2c(c1)c1cn(C)nc1n2-c1ccc(C(F)(F)F)cc1` (stereo not shown) [Example B57, 2-methyl-N-(3-methyl-5H,6H,7H-pyrrolo[1,2-a]imidazol-7-yl}-8-[4-(trifluoromethyl)phenyl]-2H,8H-pyrazolo[3,4-b]indole-5-carboxamide]: 100 to 10000 nM.
Compound `Cn1cc2c3cc(C(=O)NCCc4nncn4C4CC4)ccc3n(-c3ccc(C(F)(F)F)cc3)c2n1` [B110^] came in with an IC50 above 10000 nM.
With `CO[C@@H]1CCOC[C@H]1NC(=O)c1ccc2c(c1)c1cn(C)nc1n2-c1ccc(C(F)(F)F)cc1` [B131^], the 50% inhibitory concentration (IC50) was 100 to 10000 nM.
For `Cn1cc2c3cc(C(=O)NC4(c5ncon5)CCC4)ccc3n(-c3ccc(C(F)(F)F)cc3)c2n1` [B117^], the IC50 fell in the range of 10 to 100 nM.
Then `Cn1cc2c3cc(C(=O)NCCc4cc(O)n(C)n4)ccc3n(-c3ccc(C(F)(F)F)cc3)c2n1` [Example B38, N-[2-(5-hydroxy-1-methyl-1H-pyrazol-3-yl)ethyl]-2-methyl-8-[4-(trifluoromethyl)phenyl]-2H,8H-pyrazolo[3,4-b]indole-5-carboxamide], with above 10000 nM.
Then `CCCn1ncnc1CNC(=O)c1ccc2c(c1)c1cn(C)nc1n2-c1ccc(C(F)(F)F)cc1` [B138^], with 100 to 10000 nM.
The same measure for `COc1nn(C)cc1CNC(=O)c1ccc2c(c1)c1cn(C)nc1n2-c1ccc(C(F)(F)F)cc1` [Example B93, N-[(3-methoxy-1-methyl-1H-pyrazol-4-yl)methyl]-2-methyl-8-[4-(trifluoromethyl)phenyl]-2H,8H-pyrazolo[3,4-b]indole-5-carboxamide]: 10 to 100 nM; for `CN(Cc1c[nH]cn1)C(=O)c1ccc2c(c1)c1cn(C)nc1n2-c1ccc(C(F)(F)F)cc1` [Example B50, N-[(1H-imidazol-4-yl)methyl]-N,2-dimethyl-8-[4-(trifluoromethyl)phenyl]-2H,8H-pyrazolo[3,4-b]indole-5-carboxamide]: 100 to 10000 nM.
Compound `Cn1cc2c3cc(C(=O)N(CCO)Cc4ccnn4C)ccc3n(-c3ccc(C(F)(F)F)cc3)c2n1` [Example B27, N-(2-hydroxyethyl)-2-methyl-N-[(1-methyl-1H-pyrazol-5-yl)methyl]-8-[4-(trifluoromethyl)phenyl]-2H,8H-pyrazolo[3,4-b]indole-5-carboxamide] had an IC50 of 10 to 100 nM.
With `Cn1cc2c3cc(C(=O)NCCc4c[nH]nn4)ccc3n(-c3ccc(C(F)(F)F)cc3)c2n1` [Example B11, 2-methyl-N-[2-(1H-1,2,3-triazol-4-yl)ethyl]-8-[4-(trifluoromethyl)phenyl]-2H,8H-pyrazolo[3,4-b]indole-5-carboxamide], the IC50 fell in the range of 10 to 100 nM.

Usually IC50 stands for the concentration that inhibits the measured activity by half. A lower IC50 goes with greater potency.
